These are literature values, as cited in patent publication US20260297106A1, “SPIROCYCLIC SUBSTITUTED OXOISOINDOLINYL PIPERIDINE-2,6-DIONE COMPOUND” (Bristol-Myers Squibb Company, priority 2023, published 2026).

The test system of data set [1] is highly immunogenic syngeneic tumors. To be noted: engineered mouse models; cited from earlier work.
A further data set has as its system T and NK cell. To be noted: preclinical and clinical studies; cited from earlier work.

Take `Nc1cccc2c1CN(C1CCC(=O)NC1=O)C2=O` (centres unmarked) [lenalidomide]: the antitumor immune responses result in data set [1] is “modestly increase antitumor immune responses”. Also, in the data set with T and NK cell, the “T and NK cell functions” value is “augment T and NK cell functions”.
